Reference: ChEMBL document CHEMBL5550160, “Leveraging a rationally designed veliparib-based anilide eliciting anti-leukemic effects for the design of pH-responsive polymer nanoformulation” (Eur J Med Chem, 2024)
Active and inactive are the calls of the source. The calls are words filed in the database; no cut-off is given here.

Columns and labels:
[1] = biological target: T1, Histone deacetylase 7 (Homo sapiens) (UniProt Q8WUI4); assay: Inhibition of HDAC7 (unknown origin) assessed as residual activity at 1.37 x 10^-8M (reference value: 102.66%); details: dose 1.37 10^-8M
T1 sequence (whole entry): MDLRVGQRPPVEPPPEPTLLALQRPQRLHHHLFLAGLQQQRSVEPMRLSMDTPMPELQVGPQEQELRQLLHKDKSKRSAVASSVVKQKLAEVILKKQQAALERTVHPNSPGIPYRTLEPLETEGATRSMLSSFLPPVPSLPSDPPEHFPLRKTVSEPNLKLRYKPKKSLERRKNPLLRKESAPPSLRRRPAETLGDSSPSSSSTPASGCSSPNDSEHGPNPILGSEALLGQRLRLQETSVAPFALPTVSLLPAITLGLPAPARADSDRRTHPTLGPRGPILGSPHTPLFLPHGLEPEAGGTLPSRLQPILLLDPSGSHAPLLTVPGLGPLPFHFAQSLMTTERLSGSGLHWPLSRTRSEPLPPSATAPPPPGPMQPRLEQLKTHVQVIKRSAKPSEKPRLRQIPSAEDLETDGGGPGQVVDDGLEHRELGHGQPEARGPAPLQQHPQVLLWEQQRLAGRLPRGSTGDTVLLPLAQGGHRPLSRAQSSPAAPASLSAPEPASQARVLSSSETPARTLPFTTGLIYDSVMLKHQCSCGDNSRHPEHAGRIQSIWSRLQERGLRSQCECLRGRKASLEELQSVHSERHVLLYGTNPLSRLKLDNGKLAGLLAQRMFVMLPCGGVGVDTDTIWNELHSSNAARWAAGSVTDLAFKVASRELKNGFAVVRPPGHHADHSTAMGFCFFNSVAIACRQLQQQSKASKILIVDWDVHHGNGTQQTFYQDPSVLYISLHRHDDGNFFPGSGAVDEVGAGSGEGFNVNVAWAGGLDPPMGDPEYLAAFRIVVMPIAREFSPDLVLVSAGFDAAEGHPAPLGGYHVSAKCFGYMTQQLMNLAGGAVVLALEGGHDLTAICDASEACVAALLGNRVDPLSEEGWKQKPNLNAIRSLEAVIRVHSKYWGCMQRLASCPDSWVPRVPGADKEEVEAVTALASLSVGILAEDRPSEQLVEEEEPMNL

[2] = biological target: Histone deacetylase 9 (Homo sapiens) (UniProt Q9UKV0); assay: Inhibition of HDAC9 (unknown origin) assessed as residual activity at 3.33 x 10^-6M (reference value: 97.55%); details: dose 3.33 10^-6M
MDA-MB-231 = assay: Antiproliferative activity against human MDA-MB-231 cells assessed as inhibition of cell growth by MTT assay; type: functional, cell-based
HL-60 [3] = assay: Induction of apoptosis in human HL-60 cells assessed as chromatin condensation at 0.5 to 1 times IC50 by DAPI staining based microscopic analysis; type: functional, cell-based
Histone deacetylase 2 [4] = biological target: T2, Histone deacetylase 2 (Homo sapiens, UniProt Q92769); assay: Inhibition of HDAC2 (unknown origin) assessed as residual activity at 1.52 x 10^-9M (reference value: 99.81%); details: dose 1.52 10^-9M
Histone deacetylase 2 [5] = biological target: T2, Histone deacetylase 2; assay: Inhibition of HDAC2 (unknown origin) assessed as residual activity at 3.70 x 10^-7M (reference value: 99.81%); details: dose 3.7 10^-7M
[6] = biological target: Histone deacetylase 4 (Homo sapiens) (UniProt P56524); assay: Inhibition of HDAC4 (unknown origin) assessed as residual activity at 1 x 10^-5M (reference value: 98.90%); details: dose 1.0 10^-5M
[7] = biological target: T3, Polyamine deacetylase HDAC10 (Homo sapiens) (UniProt Q969S8); assay: Inhibition of HDAC10 (unknown origin) assessed as residual activity at 1.1 x 10^-6M (reference value: 101.54%); details: dose 1.1 10^-6M
T3 sequence (whole entry): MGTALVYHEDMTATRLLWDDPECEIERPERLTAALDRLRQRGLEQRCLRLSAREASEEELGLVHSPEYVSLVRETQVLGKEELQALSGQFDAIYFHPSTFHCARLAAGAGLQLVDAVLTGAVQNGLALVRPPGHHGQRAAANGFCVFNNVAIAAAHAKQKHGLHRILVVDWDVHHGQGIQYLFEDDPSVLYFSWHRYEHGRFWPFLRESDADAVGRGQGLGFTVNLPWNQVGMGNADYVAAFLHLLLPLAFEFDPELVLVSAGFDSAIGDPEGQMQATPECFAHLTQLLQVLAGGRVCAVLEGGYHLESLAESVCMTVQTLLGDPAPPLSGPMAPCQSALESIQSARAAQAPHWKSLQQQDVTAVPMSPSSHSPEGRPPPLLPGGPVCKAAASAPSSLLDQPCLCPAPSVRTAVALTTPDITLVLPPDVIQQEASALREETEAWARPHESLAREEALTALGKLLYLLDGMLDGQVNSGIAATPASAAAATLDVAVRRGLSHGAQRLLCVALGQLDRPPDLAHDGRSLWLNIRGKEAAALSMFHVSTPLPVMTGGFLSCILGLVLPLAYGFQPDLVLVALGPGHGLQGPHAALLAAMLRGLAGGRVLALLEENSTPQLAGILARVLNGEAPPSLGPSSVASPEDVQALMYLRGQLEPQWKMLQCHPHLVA

[8] = biological target: Histone deacetylase 9 (Homo sapiens) (UniProt Q9UKV0); assay: Inhibition of HDAC9 (unknown origin) assessed as residual activity at 4.12 x 10^-8M (reference value: 97.55%); details: dose 4.12 10^-8M
HL-60 [9] = assay: Downregulation of HDAC2 protein expression in human HL-60 cells at 0.5 to 1 times IC50 by Western blot analysis; type: functional, cell-based
[10] = biological target: Histone deacetylase 5 (Homo sapiens) (UniProt Q9UQL6); assay: Inhibition of HDAC5 (unknown origin) assessed as residual activity at 3.70 x 10^-7M (reference value: 100%); details: dose 3.7 10^-7M
[11] = biological target: Histone deacetylase 5 (Homo sapiens) (UniProt Q9UQL6); assay: Inhibition of HDAC5 (unknown origin) assessed as residual activity at 5.08 x 10^-10M (reference value: 100%); details: dose 5.08 10^-10M
[12] = biological target: T4, Histone deacetylase 8 (Homo sapiens) (UniProt Q9BY41); assay: Inhibition of HDAC8 (unknown origin) assessed as residual activity at 1.52 x 10^-9M (reference value: 100%); details: dose 1.52 10^-9M
T4 sequence (whole entry): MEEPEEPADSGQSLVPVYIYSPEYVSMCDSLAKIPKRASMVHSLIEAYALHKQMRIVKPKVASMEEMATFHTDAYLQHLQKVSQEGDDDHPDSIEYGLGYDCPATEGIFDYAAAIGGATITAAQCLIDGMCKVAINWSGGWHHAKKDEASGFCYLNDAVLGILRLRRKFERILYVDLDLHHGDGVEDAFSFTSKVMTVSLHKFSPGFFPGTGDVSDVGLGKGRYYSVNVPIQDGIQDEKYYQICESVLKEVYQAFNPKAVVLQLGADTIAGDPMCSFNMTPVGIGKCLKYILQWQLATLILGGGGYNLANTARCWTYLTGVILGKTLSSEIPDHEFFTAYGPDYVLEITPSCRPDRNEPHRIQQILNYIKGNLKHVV

Histone deacetylase 1 = Histone deacetylase 1 (Homo sapiens, UniProt Q13547); assay: Inhibition of HDAC1 (unknown origin) using p53 residues 379 to 382 [RHKK(Ac)] as fluorogenic substrate
Histone deacetylase 1, sequence (Q13547 whole entry, the tested form may be a part): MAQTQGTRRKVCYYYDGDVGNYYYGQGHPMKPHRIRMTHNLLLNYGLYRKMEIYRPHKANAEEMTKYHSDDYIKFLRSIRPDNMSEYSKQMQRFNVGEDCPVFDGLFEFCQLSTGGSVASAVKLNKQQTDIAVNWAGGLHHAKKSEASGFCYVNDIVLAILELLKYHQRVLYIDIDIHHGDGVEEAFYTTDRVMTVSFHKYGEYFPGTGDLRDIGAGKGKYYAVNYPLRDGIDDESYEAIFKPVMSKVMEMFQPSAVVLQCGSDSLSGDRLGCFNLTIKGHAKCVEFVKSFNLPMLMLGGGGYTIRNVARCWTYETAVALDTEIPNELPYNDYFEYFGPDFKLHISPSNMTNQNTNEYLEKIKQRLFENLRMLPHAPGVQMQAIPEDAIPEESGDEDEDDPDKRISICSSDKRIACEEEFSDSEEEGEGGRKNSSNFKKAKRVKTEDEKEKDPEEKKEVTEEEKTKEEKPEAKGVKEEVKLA

Histone deacetylase 5 (Homo sapiens), sequence (Q9UQL6 whole entry): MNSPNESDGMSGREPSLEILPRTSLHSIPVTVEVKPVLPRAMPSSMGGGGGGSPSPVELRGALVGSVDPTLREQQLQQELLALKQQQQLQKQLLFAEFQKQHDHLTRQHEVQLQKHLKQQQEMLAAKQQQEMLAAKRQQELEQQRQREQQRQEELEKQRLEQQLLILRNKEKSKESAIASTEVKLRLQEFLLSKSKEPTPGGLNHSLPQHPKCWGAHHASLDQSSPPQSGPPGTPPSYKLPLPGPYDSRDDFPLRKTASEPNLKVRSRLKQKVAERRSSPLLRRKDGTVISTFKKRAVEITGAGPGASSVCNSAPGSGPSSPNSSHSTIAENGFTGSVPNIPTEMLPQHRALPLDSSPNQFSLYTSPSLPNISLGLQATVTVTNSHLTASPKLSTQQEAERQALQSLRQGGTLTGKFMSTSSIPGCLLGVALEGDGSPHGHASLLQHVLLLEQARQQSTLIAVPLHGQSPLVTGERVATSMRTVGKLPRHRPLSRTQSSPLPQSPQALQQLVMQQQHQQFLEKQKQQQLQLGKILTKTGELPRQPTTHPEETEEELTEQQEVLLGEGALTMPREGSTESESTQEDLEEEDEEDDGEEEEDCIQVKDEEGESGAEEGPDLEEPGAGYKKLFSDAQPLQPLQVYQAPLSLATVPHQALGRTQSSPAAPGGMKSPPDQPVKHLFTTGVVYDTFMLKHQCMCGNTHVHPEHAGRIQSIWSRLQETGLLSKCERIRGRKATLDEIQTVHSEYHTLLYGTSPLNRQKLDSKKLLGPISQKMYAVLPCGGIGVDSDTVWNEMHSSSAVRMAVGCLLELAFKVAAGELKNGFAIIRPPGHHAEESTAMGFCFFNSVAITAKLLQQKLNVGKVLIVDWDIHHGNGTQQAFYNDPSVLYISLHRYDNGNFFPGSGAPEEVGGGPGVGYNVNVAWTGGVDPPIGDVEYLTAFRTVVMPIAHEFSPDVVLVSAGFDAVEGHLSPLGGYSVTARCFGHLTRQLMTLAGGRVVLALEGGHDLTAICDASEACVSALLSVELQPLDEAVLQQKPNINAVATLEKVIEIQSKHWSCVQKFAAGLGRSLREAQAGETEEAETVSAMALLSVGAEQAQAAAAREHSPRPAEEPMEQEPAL
Histone deacetylase 9 (Homo sapiens), sequence (Q9UKV0 whole entry): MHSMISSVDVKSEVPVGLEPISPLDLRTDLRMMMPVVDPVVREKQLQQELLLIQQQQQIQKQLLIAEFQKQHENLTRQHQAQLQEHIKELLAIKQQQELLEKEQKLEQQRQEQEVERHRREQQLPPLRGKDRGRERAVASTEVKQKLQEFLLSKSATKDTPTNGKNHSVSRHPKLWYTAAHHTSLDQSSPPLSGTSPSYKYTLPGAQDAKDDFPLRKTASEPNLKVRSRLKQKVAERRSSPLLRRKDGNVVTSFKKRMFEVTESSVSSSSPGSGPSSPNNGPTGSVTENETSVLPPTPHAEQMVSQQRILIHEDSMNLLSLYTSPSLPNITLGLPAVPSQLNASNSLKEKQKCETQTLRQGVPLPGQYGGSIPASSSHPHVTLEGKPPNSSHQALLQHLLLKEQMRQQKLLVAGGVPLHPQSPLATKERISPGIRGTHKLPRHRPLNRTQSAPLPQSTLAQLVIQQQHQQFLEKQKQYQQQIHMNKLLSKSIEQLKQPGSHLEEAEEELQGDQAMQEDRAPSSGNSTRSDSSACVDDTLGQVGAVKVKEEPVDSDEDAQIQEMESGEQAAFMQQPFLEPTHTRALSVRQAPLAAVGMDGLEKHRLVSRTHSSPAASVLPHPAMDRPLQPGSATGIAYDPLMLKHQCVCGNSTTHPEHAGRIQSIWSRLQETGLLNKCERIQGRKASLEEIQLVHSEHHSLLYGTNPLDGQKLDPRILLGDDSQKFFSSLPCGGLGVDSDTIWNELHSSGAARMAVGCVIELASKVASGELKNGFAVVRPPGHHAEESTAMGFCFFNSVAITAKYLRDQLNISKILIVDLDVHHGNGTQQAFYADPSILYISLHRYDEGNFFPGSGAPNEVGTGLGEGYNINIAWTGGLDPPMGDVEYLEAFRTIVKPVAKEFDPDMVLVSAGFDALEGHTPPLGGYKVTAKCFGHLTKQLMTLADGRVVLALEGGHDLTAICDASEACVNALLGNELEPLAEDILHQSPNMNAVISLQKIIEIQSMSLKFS
T2 sequence (Q92769 whole entry): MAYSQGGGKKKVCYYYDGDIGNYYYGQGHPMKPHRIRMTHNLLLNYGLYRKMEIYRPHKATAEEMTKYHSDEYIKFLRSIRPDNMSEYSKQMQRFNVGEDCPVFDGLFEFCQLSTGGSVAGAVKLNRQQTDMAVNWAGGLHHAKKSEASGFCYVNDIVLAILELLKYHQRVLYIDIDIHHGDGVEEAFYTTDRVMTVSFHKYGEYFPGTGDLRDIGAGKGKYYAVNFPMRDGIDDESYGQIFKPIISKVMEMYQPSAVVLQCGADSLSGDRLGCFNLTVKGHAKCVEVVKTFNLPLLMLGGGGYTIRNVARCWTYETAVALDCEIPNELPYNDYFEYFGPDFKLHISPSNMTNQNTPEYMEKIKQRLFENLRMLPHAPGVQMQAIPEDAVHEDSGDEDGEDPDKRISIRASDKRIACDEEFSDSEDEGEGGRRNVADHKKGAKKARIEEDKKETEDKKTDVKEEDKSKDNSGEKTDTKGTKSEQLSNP
Histone deacetylase 4 (Homo sapiens), sequence (P56524 whole entry): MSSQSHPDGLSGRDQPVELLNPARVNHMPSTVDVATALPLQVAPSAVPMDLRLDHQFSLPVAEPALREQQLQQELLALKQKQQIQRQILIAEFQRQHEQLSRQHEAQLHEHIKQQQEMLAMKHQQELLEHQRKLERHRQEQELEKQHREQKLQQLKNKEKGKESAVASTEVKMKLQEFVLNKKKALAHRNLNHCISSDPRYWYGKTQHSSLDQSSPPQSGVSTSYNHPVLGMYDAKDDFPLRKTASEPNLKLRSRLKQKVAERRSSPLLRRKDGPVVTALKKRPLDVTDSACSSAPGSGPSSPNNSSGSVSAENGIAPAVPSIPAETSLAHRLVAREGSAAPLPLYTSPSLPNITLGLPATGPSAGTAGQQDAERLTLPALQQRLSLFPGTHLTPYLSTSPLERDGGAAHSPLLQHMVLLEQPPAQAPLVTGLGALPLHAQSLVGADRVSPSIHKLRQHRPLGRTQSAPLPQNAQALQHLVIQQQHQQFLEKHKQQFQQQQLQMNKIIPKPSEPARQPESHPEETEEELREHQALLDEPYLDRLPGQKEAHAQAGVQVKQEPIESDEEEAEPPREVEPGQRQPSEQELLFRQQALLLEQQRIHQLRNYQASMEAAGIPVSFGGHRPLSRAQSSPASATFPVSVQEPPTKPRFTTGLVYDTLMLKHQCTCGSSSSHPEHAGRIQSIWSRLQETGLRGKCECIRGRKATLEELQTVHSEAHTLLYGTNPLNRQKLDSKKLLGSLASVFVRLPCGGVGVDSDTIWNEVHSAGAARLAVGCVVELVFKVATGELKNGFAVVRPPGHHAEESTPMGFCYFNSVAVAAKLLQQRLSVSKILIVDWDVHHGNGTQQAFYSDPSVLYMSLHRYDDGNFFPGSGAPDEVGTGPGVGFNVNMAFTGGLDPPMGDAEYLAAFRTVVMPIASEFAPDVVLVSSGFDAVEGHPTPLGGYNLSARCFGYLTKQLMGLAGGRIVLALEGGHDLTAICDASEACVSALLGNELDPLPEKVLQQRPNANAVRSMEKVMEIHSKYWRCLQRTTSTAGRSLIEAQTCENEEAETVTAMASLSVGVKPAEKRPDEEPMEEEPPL

Activity [1]: 103%
Activity [2]: 81%
IC50 (MDA-MB-231): > 10000 nM
Activity (Histone deacetylase 2 [4]): 98.2%
Activity (Histone deacetylase 2 [5]): 33.5%
Activity [6]: 127%
Activity [7]: 96.2%
Activity [8]: 102%
Activity [10]: 77.6%
Activity [11]: 39%
Activity [12]: 103%
IC50 (Histone deacetylase 1): 50 nM
Compound: NC(=O)c1cccc2[nH]c(-c3ccc(NCc4ccc(C(=O)Nc5ccccc5N)cc4)cc3)nc12
Activity (HL-60 [3]): inactive
Activity (HL-60 [9]): Active
